# What was measured:
# Details in all cases: incubation time: 72 h
# MDA-MB-468 [1] = assay: normalised response (% of control), CellTox Green; higher = less cell death (100 = DMSO, 0 = benzethonium chloride kill control)
# Method in brief: (§1)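 After 72 h with compound in 384-well plates, breast cancer cell lines seeded as 20 µl suspension were read for CellTox Green fluorescence at 485/520 nm. CellTiter-Glo luminescence was then read after 10 min at room temperature. Compound was present at 5 concentrations in 10-fold steps over a 10,000-fold range set per compound, and plates were normalised to 0.1 % DMSO (100) and a positive kill control (0). Values are normalised signals, each at a single concentration.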
# HDQ-P1 [2] = assay: as above
# Method in brief: as §1
# CAL-148 [3] = assay: as above
# Method in brief: as §1
# BT-474 [4] = assay: as above
# Method in brief: as §1
# MDA-MB-231 [5] = assay: as above
# Method in brief: as §1
# CAL-120 [6] = assay: as above
# Method in brief: as §1
# MCF-10A [7] = assay: as above
# Method in brief: as §1
# MDA-MB-436 [8] = assay: as above
# Method in brief: as §1
# CAL-51 [9] = assay: as above
# Method in brief: as §1
# HCC1599 [10] = assay: as above
# Method in brief: as §1
# MFM-223 [11] = assay: as above
# Method in brief: as §1
# MDA-MB-453 [12] = assay: as above
# Method in brief: as §1
# CAL-85-1 [13] = assay: as above
# Method in brief: as §1
# BT-549 [14] = assay: as above
# Method in brief: as §1
# DU-4475 [15] = assay: as above
# Method in brief: as §1
# Hs578T [16] = assay: as above
# Method in brief: as §1
# HCC1937 [17] = assay: as above
# Method in brief: as §1
# HCC1143 [18] = assay: as above
# Method in brief: as §1
# MDA-MB-468 [19] = assay: normalised response (% of control), CellTiter-Glo; higher = more viable cells (100 = DMSO, 0 = benzethonium chloride kill control)
# Method in brief: as §1
# HDQ-P1 [20] = assay: as above
# Method in brief: as §1
# CAL-148 [21] = assay: as above
# Method in brief: as §1
# BT-474 [22] = assay: as above
# Method in brief: as §1
# MDA-MB-231 [23] = assay: as above
# Method in brief: as §1
# CAL-120 [24] = assay: as above
# Method in brief: as §1
# MCF-10A [25] = assay: as above
# Method in brief: as §1
# MDA-MB-436 [26] = assay: as above
# Method in brief: as §1
# CAL-51 [27] = assay: as above
# Method in brief: as §1
# HCC1599 [28] = assay: as above
# Method in brief: as §1
# MFM-223 [29] = assay: as above
# Method in brief: as §1
# MDA-MB-453 [30] = assay: as above
# Method in brief: as §1
# CAL-85-1 [31] = assay: as above
# Method in brief: as §1
# BT-549 [32] = assay: as above
# Method in brief: as §1
# DU-4475 [33] = assay: as above
# Method in brief: as §1
# Hs578T [34] = assay: as above
# Method in brief: as §1
# HCC1937 [35] = assay: as above
# Method in brief: as §1
# HCC1143 [36] = assay: as above
# Method in brief: as §1
# SK-BR-3 = assay: as above
# Method in brief: as §1
smiles,measurement,setting,value
CC1=C(/C=C/C(C)=C/C=C/C(C)=C/C(=O)O)C(C)(C)CCC1 [Tretinoin] (1000 nM),normalised response,MDA-MB-468 [1],109%
same,normalised response,HDQ-P1 [2],91.2%
same,normalised response,CAL-148 [3],98.5%
same,normalised response,BT-474 [4],99.4%
same,normalised response,MDA-MB-231 [5],96.5%
same,normalised response,CAL-120 [6],107%
same,normalised response,MCF-10A [7],80.4%
same,normalised response,MDA-MB-436 [8],96.4%
same,normalised response,CAL-51 [9],99%
same,normalised response,HCC1599 [10],101%
same,normalised response,MFM-223 [11],97.5%
same,normalised response,MDA-MB-453 [12],114%
same,normalised response,CAL-85-1 [13],99.5%
same,normalised response,BT-549 [14],101%
same,normalised response,DU-4475 [15],105%
same,normalised response,Hs578T [16],59.5%
same,normalised response,HCC1937 [17],93.8%
same,normalised response,HCC1143 [18],115%
same,normalised response,MDA-MB-468 [19],84.6%
same,normalised response,HDQ-P1 [20],102%
same,normalised response,CAL-148 [21],78.1%
same,normalised response,BT-474 [22],97%
same,normalised response,MDA-MB-231 [23],96.8%
same,normalised response,CAL-120 [24],101%
same,normalised response,MCF-10A [25],82%
same,normalised response,MDA-MB-436 [26],95.6%
same,normalised response,CAL-51 [27],111%
same,normalised response,HCC1599 [28],99.3%
same,normalised response,MFM-223 [29],93.5%
same,normalised response,MDA-MB-453 [30],97.6%
same,normalised response,CAL-85-1 [31],92.2%
same,normalised response,BT-549 [32],101%
same,normalised response,DU-4475 [33],102%
same,normalised response,Hs578T [34],90.7%
same,normalised response,HCC1937 [35],97.7%
same,normalised response,HCC1143 [36],96.8%
same,normalised response,SK-BR-3,70.7%
Oc1ncc(N(CCCl)CCCl)c(O)n1 [Uracil mustard] (1000 nM),normalised response,MDA-MB-468 [1],120%
same,normalised response,HDQ-P1 [2],113%
same,normalised response,CAL-148 [3],103%
same,normalised response,BT-474 [4],101%
same,normalised response,MDA-MB-231 [5],107%
same,normalised response,CAL-120 [6],106%
same,normalised response,MCF-10A [7],102%
same,normalised response,MDA-MB-436 [8],98.7%
same,normalised response,CAL-51 [9],104%
same,normalised response,HCC1599 [10],96%
same,normalised response,MFM-223 [11],102%
same,normalised response,MDA-MB-453 [12],112%
same,normalised response,CAL-85-1 [13],115%
same,normalised response,BT-549 [14],103%
same,normalised response,DU-4475 [15],105%
same,normalised response,Hs578T [16],107%
same,normalised response,HCC1937 [17],102%
same,normalised response,HCC1143 [18],117%
same,normalised response,MDA-MB-468 [19],104%
same,normalised response,HDQ-P1 [20],105%
same,normalised response,CAL-148 [21],93.9%
same,normalised response,BT-474 [22],104%
same,normalised response,MDA-MB-231 [23],96.5%
same,normalised response,CAL-120 [24],106%
same,normalised response,MCF-10A [25],118%
same,normalised response,MDA-MB-436 [26],106%
same,normalised response,CAL-51 [27],113%
same,normalised response,HCC1599 [28],108%
same,normalised response,MFM-223 [29],98.2%
same,normalised response,MDA-MB-453 [30],104%
same,normalised response,CAL-85-1 [31],99.3%
same,normalised response,BT-549 [32],100%
same,normalised response,DU-4475 [33],95.4%
same,normalised response,Hs578T [34],99%
same,normalised response,HCC1937 [35],93.8%
same,normalised response,HCC1143 [36],101%
same,normalised response,SK-BR-3,100%
CCCCC(=O)OCC(=O)[C@]1(O)Cc2c(O)c3c(c(O)c2[C@@H](O[C@H]2C[C@H](NC(=O)C(F)(F)F)[C@H](O)[C@H](C)O2)C1)C(=O)c1c(OC)cccc1C3=O [Valrubicin] (500 nM),normalised response,MDA-MB-468 [1],276%
same,normalised response,HDQ-P1 [2],131%
same,normalised response,CAL-148 [3],56.9%
same,normalised response,BT-474 [4],106%
same,normalised response,MDA-MB-231 [5],157%
same,normalised response,CAL-120 [6],118%
same,normalised response,MCF-10A [7],113%
same,normalised response,MDA-MB-436 [8],131%
same,normalised response,CAL-51 [9],67.6%
same,normalised response,HCC1599 [10],134%
same,normalised response,MFM-223 [11],108%
same,normalised response,MDA-MB-453 [12],131%
same,normalised response,CAL-85-1 [13],144%
same,normalised response,BT-549 [14],78.4%
same,normalised response,DU-4475 [15],117%
same,normalised response,Hs578T [16],127%
same,normalised response,HCC1937 [17],167%
same,normalised response,HCC1143 [18],150%
same,normalised response,MDA-MB-468 [19],47.1%
same,normalised response,HDQ-P1 [20],81.7%
same,normalised response,CAL-148 [21],30.4%
same,normalised response,BT-474 [22],83.8%
same,normalised response,MDA-MB-231 [23],85.4%
same,normalised response,CAL-120 [24],86.9%
same,normalised response,MCF-10A [25],75.6%
same,normalised response,MDA-MB-436 [26],57.5%
same,normalised response,CAL-51 [27],50.3%
same,normalised response,HCC1599 [28],102%
same,normalised response,MFM-223 [29],108%
same,normalised response,MDA-MB-453 [30],120%
same,normalised response,CAL-85-1 [31],80.3%
same,normalised response,BT-549 [32],64.1%
same,normalised response,DU-4475 [33],52.3%
same,normalised response,Hs578T [34],88.6%
same,normalised response,HCC1937 [35],77.5%
same,normalised response,HCC1143 [36],75.5%
same,normalised response,SK-BR-3,41%
CCCS(=O)(=O)Nc1ccc(F)c(C(=O)c2c[nH]c3ncc(-c4ccc(Cl)cc4)cc23)c1F [Vemurafenib] (1000 nM),normalised response,MDA-MB-468 [1],127%
same,normalised response,HDQ-P1 [2],73.9%
same,normalised response,CAL-148 [3],101%
same,normalised response,BT-474 [4],98%
same,normalised response,MDA-MB-231 [5],97%
same,normalised response,CAL-120 [6],99.7%
same,normalised response,MCF-10A [7],88.2%
same,normalised response,MDA-MB-436 [8],65.4%
same,normalised response,CAL-51 [9],82.6%
same,normalised response,HCC1599 [10],90.8%
same,normalised response,MFM-223 [11],98%
same,normalised response,MDA-MB-453 [12],104%
same,normalised response,CAL-85-1 [13],100%
same,normalised response,BT-549 [14],116%
same,normalised response,DU-4475 [15],78.9%
same,normalised response,Hs578T [16],100%
same,normalised response,HCC1937 [17],108%
same,normalised response,HCC1143 [18],91.8%
same,normalised response,MDA-MB-468 [19],86.9%
same,normalised response,HDQ-P1 [20],94.8%
same,normalised response,CAL-148 [21],86.4%
same,normalised response,BT-474 [22],90.8%
same,normalised response,MDA-MB-231 [23],94.3%
same,normalised response,CAL-120 [24],90%
same,normalised response,MCF-10A [25],101%
same,normalised response,MDA-MB-436 [26],94.2%
same,normalised response,CAL-51 [27],88.6%
same,normalised response,HCC1599 [28],104%
same,normalised response,MFM-223 [29],86.4%
same,normalised response,MDA-MB-453 [30],90.7%
same,normalised response,CAL-85-1 [31],92.3%
same,normalised response,BT-549 [32],93.1%
same,normalised response,DU-4475 [33],35%
same,normalised response,Hs578T [34],103%
same,normalised response,HCC1937 [35],97.3%
same,normalised response,HCC1143 [36],95.6%
same,normalised response,SK-BR-3,79%

# — the supplement of paper PMC4862054
